Measurements taken from PubChem BioAssay (NCI).
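In this assay, cells in 96-well plates receive the compound at five concentrations for 48 hours. Endpoints are linearly interpolated between the surrounding concentrations. Abbreviation: GI50, concentration required for 50% inhibition of growth. TGI marks complete inhibition of growth.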

Key:
Test in all cases: growth of human tumour cells (NCI), 48 h
A549 NSCLC = system: A549 NSCLC
ACHN renal = system: ACHN renal
CAKI-1 renal = system: CAKI-1 renal
DLD-1 colon = system: DLD-1 colon
HOP-18 NSCLC = system: HOP-18 NSCLC
HT29 colon = system: HT29 colon
LXFL 529 NSCLC = system: LXFL 529 NSCLC
NCI-H522 lung = system: NCI-H522 lung
SF-295 CNS = system: SF-295 CNS
SNB-78 CNS = system: SNB-78 CNS
SR leukemia = system: SR leukemia
HS 578T breast = system: HS 578T breast

Question: With `NC(N)=NCCCC(NCc1c2ccccc2[n+]([O-])c2ccccc12)C(=O)O` (stereo not given) as the compound, how does the TGI (A549 NSCLC) read?
Answer: The TGI was > 100 µM.

Question: What about the TGI (ACHN renal) of the same compound?
Answer: The TGI was > 100 µM.

Question: And the TGI (CAKI-1 renal)?
Answer: The TGI was > 100 µM.

Question: And the TGI (DLD-1 colon)?
Answer: The TGI was > 100 µM.

Question: What about the TGI (HOP-18 NSCLC) of the same compound?
Answer: Its TGI is > 100 µM.

Question: What about the TGI (HT29 colon) of the same compound?
Answer: Its TGI is > 100 µM.

Question: And the TGI (LXFL 529 NSCLC)?
Answer: The TGI was > 100 µM.

Question: And the TGI (NCI-H522 lung)?
Answer: Its TGI is > 100 µM.

Question: What about the TGI (SF-295 CNS) of the same compound?
Answer: Its TGI is > 100 µM.

Question: And the TGI (SNB-78 CNS)?
Answer: Its TGI is > 100 µM.

Question: `C=CCCCCn1c2ccccc2c2c(C)c3c[n+](C)ccc3c(C)c21` was tested. Which TGI (A549 NSCLC) did it give?
Answer: The TGI was 4.52 µM.

Question: And the TGI (ACHN renal)?
Answer: Its TGI is 12.8 µM.

Question: What about the TGI (CAKI-1 renal) of the same compound?
Answer: The TGI was 39 µM.

Question: And the TGI (DLD-1 colon)?
Answer: Its TGI is 2.52 µM.

Question: And the TGI (HOP-18 NSCLC)?
Answer: The TGI was 1.15 µM.

Question: And the TGI (HT29 colon)?
Answer: The TGI was 1.75 µM.

Question: And the TGI (LXFL 529 NSCLC)?
Answer: The TGI was 1.32 µM.

Question: And the TGI (NCI-H522 lung)?
Answer: Its TGI is 0.608 µM.

Question: What about the TGI (SF-295 CNS) of the same compound?
Answer: Its TGI is 2.6 µM.

Question: What about the TGI (SR leukemia) of the same compound?
Answer: The TGI was 1.1 µM.

Question: With `NS(=O)(=O)c1ccc(N=Nc2nc3[nH]cnc(=S)c3[nH]2)cc1` as the compound, how does the TGI (A549 NSCLC) read?
Answer: The TGI was > 89.6 µM.

Question: What about the TGI (ACHN renal) of the same compound?
Answer: Its TGI is > 100 µM.

Question: And the TGI (CAKI-1 renal)?
Answer: The TGI was > 100 µM.

Question: What about the TGI (HS 578T breast) of the same compound?
Answer: The TGI was > 87 µM.

Question: What about the TGI (HT29 colon) of the same compound?
Answer: Its TGI is > 68.2 µM.

Question: What about the TGI (NCI-H522 lung) of the same compound?
Answer: Its TGI is 10.2 µM.

Question: And the TGI (SF-295 CNS)?
Answer: Its TGI is > 64.7 µM.

Question: And the TGI (SR leukemia)?
Answer: Its TGI is 1.11 µM.

Question: Which TGI (A549 NSCLC) does the source give for `C[N+]1(CCCC[N+]2(C)CCCCCCC2)CCCCCCC1` here?
Answer: Its TGI is > 100 µM.

Question: And the TGI (ACHN renal)?
Answer: The TGI was > 100 µM.

Question: And the TGI (CAKI-1 renal)?
Answer: The TGI was > 100 µM.

Question: What about the TGI (HS 578T breast) of the same compound?
Answer: The TGI was 60.4 µM.

Question: What about the TGI (HT29 colon) of the same compound?
Answer: The TGI was > 100 µM.

Question: And the TGI (NCI-H522 lung)?
Answer: The TGI was > 100 µM.

Question: And the TGI (SF-295 CNS)?
Answer: The TGI was > 100 µM.

Question: And the TGI (SR leukemia)?
Answer: Its TGI is > 100 µM.

Question: What does the source list for `Cc1n(-c2ccccc2)c2c([n+]1Cc1ccc([N+](=O)[O-])cc1)C(=O)c1ccccc1C2=O`?
Answer: TGI (A549 NSCLC): 10.7 µM; TGI (ACHN renal): 13.9 µM; TGI (CAKI-1 renal): 39.7 µM; TGI (DLD-1 colon): 19.4 µM; TGI (HOP-18 NSCLC): 17.7 µM; TGI (HS 578T breast): 5.51 µM; TGI (HT29 colon): 6.43 µM; TGI (LXFL 529 NSCLC): 2.76 µM; TGI (NCI-H522 lung): 1.67 µM; TGI (SF-295 CNS): 15.3 µM; TGI (SNB-78 CNS): 6.88 µM; TGI (SR leukemia): 4.9 µM

Question: Which TGI (A549 NSCLC) does the source give for `CCN(CC)CCOCC1CCCN2CCCCC12` (stereo not given) here?
Answer: Its TGI is > 100 µM.

Question: What about the TGI (ACHN renal) of the same compound?
Answer: The TGI was > 100 µM.

Question: What about the TGI (CAKI-1 renal) of the same compound?
Answer: Its TGI is > 100 µM.

Question: What about the TGI (HS 578T breast) of the same compound?
Answer: The TGI was > 100 µM.

Question: What about the TGI (HT29 colon) of the same compound?
Answer: Its TGI is > 100 µM.

Question: And the TGI (SF-295 CNS)?
Answer: The TGI was > 100 µM.

Question: `Cc1cc(=O)[nH]c(NN2C(Cl)C(=O)C2c2c(O)ccc3ccccc23)n1` (stereo not given) was tested. Which TGI (A549 NSCLC) did it give?
Answer: The TGI was > 100 µM.

Question: And the TGI (ACHN renal)?
Answer: Its TGI is > 100 µM.

Question: And the TGI (HOP-18 NSCLC)?
Answer: The TGI was 53.5 µM.

Question: What about the TGI (HT29 colon) of the same compound?
Answer: Its TGI is 74 µM.

Question: And the TGI (LXFL 529 NSCLC)?
Answer: The TGI was 30.3 µM.

Question: And the TGI (SNB-78 CNS)?
Answer: Its TGI is 70.4 µM.

Question: What about the TGI (SR leukemia) of the same compound?
Answer: The TGI was 72.7 µM.

Question: Which GI50 (A549 NSCLC) does the source give for `c1ccc(C2=NN[C@H](c3cn(-c4ccccc4)nc3-c3ccccc3)C2)cc1` here?
Answer: The GI50 was 4.02 µM.

Question: And the TGI (A549 NSCLC)?
Answer: Its TGI is > 100 µM.

Question: What about the GI50 (HS 578T breast) of the same compound?
Answer: The GI50 was 2.63 µM.

Question: And the TGI (HS 578T breast)?
Answer: The TGI was 7.45 µM.

Question: And the GI50 (HT29 colon)?
Answer: The GI50 was > 100 µM.

Question: What about the TGI (HT29 colon) of the same compound?
Answer: The TGI was > 100 µM.

Question: And the GI50 (SR leukemia)?
Answer: Its GI50 is > 100 µM.

Question: And the TGI (SR leukemia)?
Answer: The TGI was > 100 µM.

Question: `CCCC(=O)[O-].CCCC(=O)[O-].N.N.N.N.[Co+3].[O-][Cl+3]([O-])([O-])[O-]` was tested. Which TGI (A549 NSCLC) did it give?
Answer: Its TGI is > 100 µM.

Question: And the TGI (ACHN renal)?
Answer: Its TGI is > 100 µM.

Question: And the GI50 (DLD-1 colon)?
Answer: Its GI50 is > 100 µM.

Question: What about the TGI (DLD-1 colon) of the same compound?
Answer: The TGI was > 100 µM.

Question: What about the TGI (HT29 colon) of the same compound?
Answer: The TGI was > 100 µM.

Question: And the GI50 (LXFL 529 NSCLC)?
Answer: Its GI50 is > 100 µM.

Question: What about the TGI (LXFL 529 NSCLC) of the same compound?
Answer: The TGI was > 100 µM.

Question: What about the TGI (NCI-H522 lung) of the same compound?
Answer: The TGI was > 100 µM.

Question: And the TGI (SF-295 CNS)?
Answer: Its TGI is > 100 µM.

Question: What about the GI50 (SNB-78 CNS) of the same compound?
Answer: Its GI50 is > 100 µM.

Question: And the TGI (SNB-78 CNS)?
Answer: Its TGI is > 100 µM.

Question: How did the TGI (A549 NSCLC) turn out when `COc1cc(O)c2c(c1O)C(=O)c1cc(C)ncc1C2=O` was run?
Answer: The TGI was > 50 µM.

Question: What about the TGI (ACHN renal) of the same compound?
Answer: Its TGI is > 50 µM.

Question: And the TGI (DLD-1 colon)?
Answer: The TGI was > 50 µM.

Question: And the TGI (HOP-18 NSCLC)?
Answer: The TGI was > 50 µM.

Question: And the TGI (HT29 colon)?
Answer: Its TGI is > 50 µM.

Question: What about the TGI (LXFL 529 NSCLC) of the same compound?
Answer: Its TGI is > 50 µM.

Question: What about the TGI (NCI-H522 lung) of the same compound?
Answer: Its TGI is > 50 µM.

Question: And the TGI (SF-295 CNS)?
Answer: The TGI was > 50 µM.

Question: What about the TGI (SNB-78 CNS) of the same compound?
Answer: Its TGI is > 50 µM.

Question: With `CCCCCCCSCC1OC(n2cnc3c(N)ncnc32)C(O)C1O` (stereo not given) as the compound, how does the TGI (A549 NSCLC) read?
Answer: Its TGI is > 100 µM.

Question: And the TGI (ACHN renal)?
Answer: The TGI was > 100 µM.

Question: What about the TGI (CAKI-1 renal) of the same compound?
Answer: Its TGI is 19.5 µM.

Question: What about the TGI (DLD-1 colon) of the same compound?
Answer: Its TGI is 28.7 µM.

Question: And the TGI (HOP-18 NSCLC)?
Answer: The TGI was 68.2 µM.

Question: What about the TGI (HT29 colon) of the same compound?
Answer: The TGI was 4.51 µM.

Question: And the TGI (LXFL 529 NSCLC)?
Answer: The TGI was 29.8 µM.

Question: And the TGI (SF-295 CNS)?
Answer: The TGI was > 100 µM.

Question: And the TGI (SNB-78 CNS)?
Answer: The TGI was > 100 µM.

Question: And the TGI (SR leukemia)?
Answer: The TGI was 43.4 µM.

Question: For `Nc1nc(Sc2ccc([N+](=O)[O-])cn2)c2[nH]cnc2n1`, which TGI (A549 NSCLC) is on record?
Answer: The TGI was 62.1 µM.

Question: And the TGI (ACHN renal)?
Answer: Its TGI is > 73.5 µM.

Question: And the TGI (CAKI-1 renal)?
Answer: Its TGI is 71.7 µM.

Question: What about the TGI (HS 578T breast) of the same compound?
Answer: Its TGI is 77.8 µM.

Question: What about the TGI (HT29 colon) of the same compound?
Answer: The TGI was > 74.3 µM.

Question: What about the TGI (NCI-H522 lung) of the same compound?
Answer: The TGI was 40.2 µM.

Question: What about the TGI (SF-295 CNS) of the same compound?
Answer: The TGI was > 94.2 µM.

Question: What about the TGI (SR leukemia) of the same compound?
Answer: Its TGI is > 100 µM.

Question: `Cc1n(CC(C)C)c2c([n+]1CC(=O)c1ccc([N+](=O)[O-])cc1)C(=O)c1ccccc1C2=O` was tested. Which TGI (A549 NSCLC) did it give?
Answer: The TGI was 0.933 µM.

Question: And the TGI (CAKI-1 renal)?
Answer: Its TGI is 1.13 µM.

Question: And the TGI (DLD-1 colon)?
Answer: The TGI was 0.797 µM.

Question: What about the TGI (HOP-18 NSCLC) of the same compound?
Answer: Its TGI is 0.202 µM.

Question: What about the TGI (HT29 colon) of the same compound?
Answer: The TGI was 0.55 µM.

Question: And the TGI (NCI-H522 lung)?
Answer: The TGI was < 0.01 µM.

Question: What about the TGI (SF-295 CNS) of the same compound?
Answer: The TGI was 1.51 µM.

Question: What about the TGI (SNB-78 CNS) of the same compound?
Answer: Its TGI is 0.107 µM.
